Measurements reported in patent US10202361B2, “Pyridazinones as herbicides” (E I DU PONT DE NEMOURS AND COMPANY, priority 2014, dated 2019).

Tests used:
Test in all cases: Test D pre-/postemergence controlled growth environment herbicide test
Type in all cases: in vivo
Conditions in all cases: scale 0 to 100
[1] = system: oat, wild (wild oat, Avena fatua)
Excerpt: (§1) Seeds of plant species selected from bluegrass (annual bluegrass, Poa annua), blackgrass (Alopecurus myosuroides), canarygrass (Phalaris minor), chickweed (common chickweed, Stellaria media), galium (catchweed bedstraw, Galium aparine), downy bromegrass (Bromus tectorum), field poppy (Papaver rhoeas), field violet (Viola arvensis), foxtail, green (green foxtail, Setaria viridis), deadnettle (henbit deadnettle, Lamium amplexicaule), ryegrass, Italian (Italian ryegrass, Lolium multiflorum), kochia (Kochia scoparia), lambsquarters (Chenopodium album), oilseed rape (Brassica napus), pigweed (Amaranthus retroflexus), chamomile (scentless chamomile, Matricaria inodora), Russian thistle (Salsola kali), speedwell (bird's-eye speedwell, Veronica persica), barley, spring (spring barley, Hordeum vulgare), wheat, spring (spring wheat, Triticum aestivum), buckwheat, wild (wild buckwheat, Polygonum convolvulus), mustard, wild (wild mustard, Sinapis arvensis), oat, wild (wild oat, Avena fatua), radish, wild (wild radish, Raphanus raphanistrum), windgrass (Apera spica-venti), barley, winter (winter barley, Hordeum vulgare), and wheat, winter (winter wheat, Triticum aestivum) were planted into a silt loam soil and treated preemergence with test chemicals formulated in a non-phytotoxic solvent mixture which included a surfactant.
(§2) At the same time, these species were planted in pots containing Redi-Earth® planting medium (Scotts Company, 14111 Scottslawn Road, Marysville, Ohio 43041) comprising spaghnum peat moss, vermiculite, wetting agent and starter nutrients and treated with postemergence applications of the test chemicals formulated in the same manner. Plants ranged in height from 2 to 18 cm (1- to 4-leaf stage). Treated plants and controls were maintained in a controlled growth environment for 14 to 21 d after which time all species were compared to controls and visually evaluated. Plant response ratings, summarized in Table D, are based on a scale of 0 to 100 where 0 is no effect and 100 is complete control. A dash (-) response means no test result.

kochia (Kochia scoparia) = system: kochia (Kochia scoparia)
Excerpt: as §1, §2

[2] = system: ryegrass, Italian (Italian ryegrass, Lolium multiflorum)
Excerpt: as §1, §2

[3] = system: pigweed (Amaranthus retroflexus)
Excerpt: as §1, §2

[4] = system: mustard, wild (wild mustard, Sinapis arvensis)
Excerpt: as §1, §2

[5] = system: bluegrass (annual bluegrass, Poa annua)
Excerpt: as §1, §2

[6] = system: barley, winter (winter barley, Hordeum vulgare)
Excerpt: as §1, §2

[7] = system: wheat, spring (spring wheat, Triticum aestivum)
Excerpt: as §1, §2

[8] = system: canarygrass (Phalaris minor)
Excerpt: as §1, §2

[9] = system: barley, spring (spring barley, Hordeum vulgare)
Excerpt: as §1, §2

[10] = system: chickweed (common chickweed, Stellaria media)
Excerpt: as §1, §2

Molecule `Cc1cc(=O)n(-c2ccc(F)cc2)nc1Oc1ccnc(C(F)(F)F)c1` [Compound 14, 2-(4-fluorophenyl)-5-methyl-6-[[2-(trifluoromethyl)-4-pyridinyl]oxy]-3 (2H)-pyridazinone] has a Plant response rating ([1]; Postemergence, 16 g ai/ha) of 10, a Plant response rating ([1]; Postemergence, 31 g ai/ha) of 10 and a Plant response rating ([1]; Postemergence, 62 g ai/ha) of 15. For the same molecule, the Plant response rating ([1]; Postemergence, 125 g ai/ha) was 20, the Plant response rating ([1]; Postemergence, 250 g ai/ha) was 30 and the Plant response rating ([1]; Preemergence, 16 g ai/ha) was 0. It also gave a Plant response rating ([1]; Preemergence, 31 g ai/ha) of 0, a Plant response rating ([1]; Preemergence, 62 g ai/ha) of 0 and a Plant response rating ([1]; Preemergence, 125 g ai/ha) of 10. For the same molecule, the Plant response rating ([1]; Preemergence, 250 g ai/ha) was 20, the Plant response rating (kochia (Kochia scoparia); Postemergence, 16 g ai/ha) was 60 and the Plant response rating (kochia (Kochia scoparia); Postemergence, 31 g ai/ha) was 60. It also gave a Plant response rating (kochia (Kochia scoparia); Postemergence, 62 g ai/ha) of 65, a Plant response rating (kochia (Kochia scoparia); Postemergence, 125 g ai/ha) of 85 and a Plant response rating (kochia (Kochia scoparia); Postemergence, 250 g ai/ha) of 90. The Plant response rating (kochia (Kochia scoparia); Preemergence, 16 g ai/ha) was 35, the Plant response rating (kochia (Kochia scoparia); Preemergence, 31 g ai/ha) was 65 and the Plant response rating (kochia (Kochia scoparia); Preemergence, 62 g ai/ha) was 95. For the same molecule, the Plant response rating (kochia (Kochia scoparia); Preemergence, 125 g ai/ha) was 70, the Plant response rating (kochia (Kochia scoparia); Preemergence, 250 g ai/ha) was 100 and the Plant response rating ([2]; Postemergence, 16 g ai/ha) was 5. For the same molecule, the Plant response rating ([2]; Postemergence, 31 g ai/ha) was 5, the Plant response rating ([2]; Postemergence, 62 g ai/ha) was 10 and the Plant response rating ([2]; Postemergence, 125 g ai/ha) was 15. For the same molecule, the Plant response rating ([2]; Postemergence, 250 g ai/ha) was 15, the Plant response rating ([2]; Preemergence, 16 g ai/ha) was 0 and the Plant response rating ([2]; Preemergence, 31 g ai/ha) was 0. The Plant response rating ([2]; Preemergence, 62 g ai/ha) was 0, the Plant response rating ([2]; Preemergence, 125 g ai/ha) was 15 and the Plant response rating ([2]; Preemergence, 250 g ai/ha) was 25. It also gave a Plant response rating ([3]; Postemergence, 16 g ai/ha) of 60, a Plant response rating ([3]; Postemergence, 31 g ai/ha) of 60 and a Plant response rating ([3]; Postemergence, 62 g ai/ha) of 70. For the same molecule, the Plant response rating ([3]; Postemergence, 125 g ai/ha) was 75, the Plant response rating ([3]; Postemergence, 250 g ai/ha) was 75 and the Plant response rating ([3]; Preemergence, 16 g ai/ha) was 35. For the same molecule, the Plant response rating ([3]; Preemergence, 31 g ai/ha) was 95, the Plant response rating ([3]; Preemergence, 62 g ai/ha) was 75 and the Plant response rating ([3]; Preemergence, 125 g ai/ha) was 100. It also gave a Plant response rating ([3]; Preemergence, 250 g ai/ha) of 100, a Plant response rating ([4]; Postemergence, 16 g ai/ha) of 65 and a Plant response rating ([4]; Postemergence, 31 g ai/ha) of 60. The Plant response rating ([4]; Postemergence, 62 g ai/ha) was 65, the Plant response rating ([4]; Postemergence, 125 g ai/ha) was 75 and the Plant response rating ([4]; Postemergence, 250 g ai/ha) was 95. For the same molecule, the Plant response rating ([4]; Preemergence, 16 g ai/ha) was 30, the Plant response rating ([4]; Preemergence, 31 g ai/ha) was 35 and the Plant response rating ([4]; Preemergence, 62 g ai/ha) was 40. The Plant response rating ([4]; Preemergence, 125 g ai/ha) was 100, the Plant response rating ([4]; Preemergence, 250 g ai/ha) was 100 and the Plant response rating ([5]; Postemergence, 16 g ai/ha) was 15. For the same molecule, the Plant response rating ([5]; Postemergence, 31 g ai/ha) was 20, the Plant response rating ([5]; Postemergence, 62 g ai/ha) was 20 and the Plant response rating ([5]; Postemergence, 125 g ai/ha) was 15. It also gave a Plant response rating ([5]; Postemergence, 250 g ai/ha) of 30, a Plant response rating ([5]; Preemergence, 16 g ai/ha) of 5 and a Plant response rating ([5]; Preemergence, 31 g ai/ha) of 0. It also gave a Plant response rating ([5]; Preemergence, 62 g ai/ha) of 0, a Plant response rating ([5]; Preemergence, 125 g ai/ha) of 10 and a Plant response rating ([5]; Preemergence, 250 g ai/ha) of 35. For the same molecule, the Plant response rating ([6]; Postemergence, 16 g ai/ha) was 10, the Plant response rating ([6]; Postemergence, 31 g ai/ha) was 15 and the Plant response rating ([6]; Postemergence, 62 g ai/ha) was 20. The Plant response rating ([6]; Postemergence, 125 g ai/ha) was 20, the Plant response rating ([6]; Postemergence, 250 g ai/ha) was 25 and the Plant response rating ([6]; Preemergence, 16 g ai/ha) was 15. For the same molecule, the Plant response rating ([6]; Preemergence, 31 g ai/ha) was 5, the Plant response rating ([6]; Preemergence, 62 g ai/ha) was 5 and the Plant response rating ([6]; Preemergence, 125 g ai/ha) was 5. The Plant response rating ([6]; Preemergence, 250 g ai/ha) was 5, the Plant response rating ([7]; Postemergence, 16 g ai/ha) was 5 and the Plant response rating ([7]; Postemergence, 31 g ai/ha) was 10. It also gave a Plant response rating ([7]; Postemergence, 62 g ai/ha) of 15, a Plant response rating ([7]; Postemergence, 125 g ai/ha) of 15 and a Plant response rating ([7]; Postemergence, 250 g ai/ha) of 15. For the same molecule, the Plant response rating ([7]; Preemergence, 16 g ai/ha) was 0, the Plant response rating ([7]; Preemergence, 31 g ai/ha) was 0 and the Plant response rating ([7]; Preemergence, 62 g ai/ha) was 0. For the same molecule, the Plant response rating ([7]; Preemergence, 125 g ai/ha) was 10, the Plant response rating ([7]; Preemergence, 250 g ai/ha) was 15 and the Plant response rating ([8]; Postemergence, 16 g ai/ha) was 15. For the same molecule, the Plant response rating ([8]; Postemergence, 31 g ai/ha) was 15, the Plant response rating ([8]; Postemergence, 62 g ai/ha) was 15 and the Plant response rating ([8]; Postemergence, 125 g ai/ha) was 20. For the same molecule, the Plant response rating ([8]; Postemergence, 250 g ai/ha) was 25, the Plant response rating ([8]; Preemergence, 16 g ai/ha) was 5 and the Plant response rating ([8]; Preemergence, 31 g ai/ha) was 5. The Plant response rating ([8]; Preemergence, 62 g ai/ha) was 20, the Plant response rating ([8]; Preemergence, 125 g ai/ha) was 35 and the Plant response rating ([8]; Preemergence, 250 g ai/ha) was 80. The Plant response rating ([9]; Postemergence, 16 g ai/ha) was 5, the Plant response rating ([9]; Postemergence, 31 g ai/ha) was 10 and the Plant response rating ([9]; Postemergence, 62 g ai/ha) was 15. It also gave a Plant response rating ([9]; Postemergence, 125 g ai/ha) of 20, a Plant response rating ([9]; Postemergence, 250 g ai/ha) of 20 and a Plant response rating ([9]; Preemergence, 16 g ai/ha) of 5. It also gave a Plant response rating ([9]; Preemergence, 31 g ai/ha) of 10, a Plant response rating ([9]; Preemergence, 62 g ai/ha) of 5 and a Plant response rating ([9]; Preemergence, 125 g ai/ha) of 15. For the same molecule, the Plant response rating ([9]; Preemergence, 250 g ai/ha) was 5, the Plant response rating ([10]; Postemergence, 16 g ai/ha) was 50 and the Plant response rating ([10]; Postemergence, 31 g ai/ha) was 60. It also gave a Plant response rating ([10]; Postemergence, 62 g ai/ha) of 45, a Plant response rating ([10]; Postemergence, 125 g ai/ha) of 70 and a Plant response rating ([10]; Postemergence, 250 g ai/ha) of 90. The Plant response rating ([10]; Preemergence, 16 g ai/ha) was 10, the Plant response rating ([10]; Preemergence, 125 g ai/ha) was 100 and the Plant response rating ([10]; Preemergence, 250 g ai/ha) was 95.
